Results reported in PubChem BioAssay (NCI).
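Tested at 5 concentrations; 48 h exposure; 96-well plates; endpoints linearly interpolated, else capped at highest concentration. GI50 marks 50% less growth. TGI: total growth inhibition.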

Assays:
Test in all cases: inhibition of tumour cell growth, NCI panel, 48 h
SK-OV-3 ovarian = test system: SK-OV-3 ovarian
M14 melanoma = test system: M14 melanoma
OVCAR-8 ovarian = test system: OVCAR-8 ovarian
PC-3 prostate = test system: PC-3 prostate
KM12 colon = test system: KM12 colon
SF-295 CNS = test system: SF-295 CNS
BT-549 breast = test system: BT-549 breast
HS 578T breast = test system: HS 578T breast
OVCAR-5 ovarian = test system: OVCAR-5 ovarian
MCF7 breast = test system: MCF7 breast
SK-MEL-5 melanoma = test system: SK-MEL-5 melanoma
786-0 renal = test system: 786-0 renal
HL-60(TB) leukemia = test system: HL-60(TB) leukemia
OVCAR-4 ovarian = test system: OVCAR-4 ovarian
HOP-92 NSCLC = test system: HOP-92 NSCLC
NCI-H226 lung = test system: NCI-H226 lung
SW-620 colon = test system: SW-620 colon
T-47D breast = test system: T-47D breast
MOLT-4 leukemia = test system: MOLT-4 leukemia
NCI/ADR-RES ovarian = test system: NCI/ADR-RES ovarian
UO-31 renal = test system: UO-31 renal
DU-145 prostate = test system: DU-145 prostate
HCT-116 colon = test system: HCT-116 colon
SF-268 CNS = test system: SF-268 CNS
TK-10 renal = test system: TK-10 renal
SR leukemia = test system: SR leukemia
A549 NSCLC = test system: A549 NSCLC
HOP-62 NSCLC = test system: HOP-62 NSCLC
HCT-15 colon = test system: HCT-15 colon
MALME-3M melanoma = test system: MALME-3M melanoma
MDA-MB-435 = test system: MDA-MB-435
UACC-257 melanoma = test system: UACC-257 melanoma
SF-539 CNS = test system: SF-539 CNS
NCI-H460 lung = test system: NCI-H460 lung
RXF 393 renal = test system: RXF 393 renal
UACC-62 melanoma = test system: UACC-62 melanoma
U251 CNS = test system: U251 CNS
SNB-75 CNS = test system: SNB-75 CNS
CCRF-CEM leukemia = test system: CCRF-CEM leukemia
K-562 leukemia = test system: K-562 leukemia
HT29 colon = test system: HT29 colon
MDA-MB-231 breast = test system: MDA-MB-231 breast
HCC-2998 colon = test system: HCC-2998 colon
SNB-19 CNS = test system: SNB-19 CNS
RPMI-8226 leukemia = test system: RPMI-8226 leukemia
EKVX NSCLC = test system: EKVX NSCLC
A498 renal = test system: A498 renal
COLO 205 colon = test system: COLO 205 colon
LOX IMVI melanoma = test system: LOX IMVI melanoma
NCI-H522 lung = test system: NCI-H522 lung
OVCAR-3 ovarian = test system: OVCAR-3 ovarian
SK-MEL-2 melanoma = test system: SK-MEL-2 melanoma
CAKI-1 renal = test system: CAKI-1 renal
SN12C renal = test system: SN12C renal
IGROV1 ovarian = test system: IGROV1 ovarian
ACHN renal = test system: ACHN renal
NCI-H23 lung = test system: NCI-H23 lung
MDA-N = test system: MDA-N
SK-MEL-28 melanoma = test system: SK-MEL-28 melanoma

C#CC#CC#CC#CC#CC#CC#CC#CC[C@@H]1OC[C@@H](COC(=O)O[C@@H](C(=O)O[C@H]2C[C@@]3(O)[C@@H](OC(=O)c4ccccc4)[C@@H]4[C@]5(OC(C)=O)CO[C@@H]5C[C@H](O)[C@@]4(C)C(=O)[C@H](OC(C)=O)C(=C2C)C3(C)C)[C@@H](NC(=O)c2ccccc2)c2ccccc2)O1
GI50 (SK-OV-3 ovarian): 0.897 µM | TGI (SK-OV-3 ovarian): > 33.3 µM | GI50 (M14 melanoma): 0.165 µM | TGI (M14 melanoma): 1.38 µM | GI50 (OVCAR-8 ovarian): 0.46 µM | TGI (OVCAR-8 ovarian): > 33.3 µM | GI50 (PC-3 prostate): 0.345 µM | TGI (PC-3 prostate): > 33.3 µM | GI50 (KM12 colon): 0.191 µM | TGI (KM12 colon): > 33.3 µM | GI50 (SF-295 CNS): 0.579 µM | TGI (SF-295 CNS): 2.41 µM | GI50 (BT-549 breast): 0.639 µM | TGI (BT-549 breast): > 33.3 µM | GI50 (HS 578T breast): 0.239 µM | TGI (HS 578T breast): > 8.14 µM | GI50 (OVCAR-5 ovarian): 0.333 µM | TGI (OVCAR-5 ovarian): > 33.3 µM | GI50 (MCF7 breast): 0.0872 µM | TGI (MCF7 breast): > 33.3 µM | GI50 (SK-MEL-5 melanoma): 0.83 µM | TGI (SK-MEL-5 melanoma): > 9.15 µM | GI50 (786-0 renal): 1.09 µM | TGI (786-0 renal): > 33.3 µM | GI50 (HL-60(TB) leukemia): 0.163 µM | TGI (HL-60(TB) leukemia): > 33.3 µM | GI50 (OVCAR-4 ovarian): > 8.99 µM | TGI (OVCAR-4 ovarian): > 33.3 µM | TGI (HOP-92 NSCLC): > 33.3 µM | GI50 (NCI-H226 lung): > 9.56 µM | TGI (NCI-H226 lung): > 33.3 µM | GI50 (SW-620 colon): 0.188 µM | TGI (SW-620 colon): > 33.3 µM | GI50 (T-47D breast): 0.335 µM | TGI (T-47D breast): > 33.3 µM | GI50 (MOLT-4 leukemia): 0.362 µM | TGI (MOLT-4 leukemia): > 33.3 µM | GI50 (NCI/ADR-RES ovarian): > 33.3 µM | TGI (NCI/ADR-RES ovarian): > 33.3 µM | GI50 (UO-31 renal): 3.39 µM | TGI (UO-31 renal): > 33.3 µM | GI50 (DU-145 prostate): 0.502 µM | TGI (DU-145 prostate): > 33.3 µM | GI50 (HCT-116 colon): 0.0919 µM | TGI (HCT-116 colon): > 33.3 µM | GI50 (SF-268 CNS): 0.593 µM | TGI (SF-268 CNS): > 33.3 µM | GI50 (TK-10 renal): 2.25 µM | TGI (TK-10 renal): > 33.3 µM | GI50 (SR leukemia): 0.16 µM | TGI (SR leukemia): > 33.3 µM | GI50 (A549 NSCLC): 0.285 µM | TGI (A549 NSCLC): > 33.3 µM | GI50 (HOP-62 NSCLC): 1.13 µM | TGI (HOP-62 NSCLC): > 33.3 µM | GI50 (HCT-15 colon): 1.11 µM | TGI (HCT-15 colon): > 33.3 µM | GI50 (MALME-3M melanoma): 0.721 µM | TGI (MALME-3M melanoma): > 33.3 µM | GI50 (MDA-MB-435): 0.0394 µM | TGI (MDA-MB-435): 0.111 µM | GI50 (UACC-257 melanoma): > 15.7 µM | TGI (UACC-257 melanoma): > 33.3 µM | GI50 (SF-539 CNS): 0.248 µM | TGI (SF-539 CNS): 1.99 µM | GI50 (NCI-H460 lung): 0.101 µM | TGI (NCI-H460 lung): > 33.3 µM | GI50 (RXF 393 renal): 0.471 µM | TGI (RXF 393 renal): 2.39 µM | GI50 (UACC-62 melanoma): 0.815 µM | TGI (UACC-62 melanoma): > 33.3 µM | GI50 (U251 CNS): 0.316 µM | TGI (U251 CNS): > 33.3 µM | GI50 (SNB-75 CNS): 0.0599 µM | TGI (SNB-75 CNS): 0.469 µM | GI50 (CCRF-CEM leukemia): 0.354 µM | TGI (CCRF-CEM leukemia): > 33.3 µM | GI50 (K-562 leukemia): 0.17 µM | TGI (K-562 leukemia): > 33.3 µM | GI50 (HT29 colon): 0.095 µM | TGI (HT29 colon): > 33.3 µM | GI50 (MDA-MB-231 breast): 0.65 µM | TGI (MDA-MB-231 breast): > 33.3 µM | GI50 (HCC-2998 colon): 0.289 µM | TGI (HCC-2998 colon): > 17.5 µM | GI50 (SNB-19 CNS): 1.08 µM | TGI (SNB-19 CNS): > 33.3 µM | GI50 (RPMI-8226 leukemia): 0.109 µM | TGI (RPMI-8226 leukemia): > 33.3 µM | GI50 (EKVX NSCLC): 2.25 µM | TGI (EKVX NSCLC): > 33.3 µM | GI50 (A498 renal): 0.332 µM | TGI (A498 renal): > 6.73 µM | GI50 (COLO 205 colon): 0.181 µM | TGI (COLO 205 colon): > 33.3 µM | GI50 (LOX IMVI melanoma): 0.0935 µM | TGI (LOX IMVI melanoma): > 33.3 µM | GI50 (NCI-H522 lung): 0.367 µM | TGI (NCI-H522 lung): > 17.6 µM | GI50 (OVCAR-3 ovarian): 0.142 µM | GI50 (SK-MEL-2 melanoma): 1.28 µM | TGI (SK-MEL-2 melanoma): > 33.3 µM | GI50 (CAKI-1 renal): 0.477 µM | TGI (CAKI-1 renal): > 33.3 µM | GI50 (SN12C renal): 1.03 µM | TGI (SN12C renal): > 33.3 µM | GI50 (IGROV1 ovarian): 0.404 µM | TGI (IGROV1 ovarian): > 33.3 µM | GI50 (ACHN renal): 2.02 µM | TGI (ACHN renal): > 33.3 µM | GI50 (NCI-H23 lung): 1.04 µM | TGI (NCI-H23 lung): > 33.3 µM

Cc1cc2c(cc1Cl)Sc1n[nH]c(=O)n1S2(=O)=O
TGI (SK-OV-3 ovarian): > 100 µM | TGI (M14 melanoma): > 100 µM | TGI (OVCAR-8 ovarian): > 100 µM | TGI (PC-3 prostate): > 100 µM | TGI (KM12 colon): > 100 µM | TGI (SF-295 CNS): > 100 µM | TGI (BT-549 breast): > 100 µM | TGI (HS 578T breast): > 100 µM | TGI (OVCAR-5 ovarian): > 100 µM | TGI (MCF7 breast): > 100 µM | TGI (MDA-N): > 100 µM | TGI (SK-MEL-28 melanoma): > 100 µM | TGI (SK-MEL-5 melanoma): > 100 µM | TGI (786-0 renal): > 100 µM | TGI (HL-60(TB) leukemia): > 100 µM | TGI (OVCAR-4 ovarian): > 100 µM | TGI (HOP-92 NSCLC): > 100 µM | TGI (NCI-H226 lung): > 100 µM | TGI (SW-620 colon): > 100 µM | TGI (MOLT-4 leukemia): > 100 µM | TGI (NCI/ADR-RES ovarian): > 100 µM | TGI (UO-31 renal): > 100 µM | TGI (DU-145 prostate): > 100 µM | TGI (HCT-116 colon): > 100 µM | TGI (SF-268 CNS): > 100 µM | TGI (TK-10 renal): > 100 µM | TGI (A549 NSCLC): > 100 µM | TGI (HOP-62 NSCLC): > 100 µM | TGI (HCT-15 colon): > 100 µM | TGI (MALME-3M melanoma): > 100 µM | TGI (MDA-MB-435): > 100 µM | TGI (UACC-257 melanoma): > 100 µM | TGI (SF-539 CNS): > 100 µM | TGI (NCI-H460 lung): > 100 µM | TGI (UACC-62 melanoma): > 100 µM | TGI (U251 CNS): > 100 µM | TGI (SNB-75 CNS): > 100 µM | TGI (CCRF-CEM leukemia): > 100 µM | TGI (K-562 leukemia): > 100 µM | TGI (HT29 colon): > 100 µM | TGI (MDA-MB-231 breast): > 100 µM | TGI (HCC-2998 colon): > 100 µM | TGI (SNB-19 CNS): > 100 µM | TGI (EKVX NSCLC): > 100 µM | TGI (A498 renal): 90.8 µM | TGI (COLO 205 colon): > 100 µM | TGI (LOX IMVI melanoma): > 100 µM | TGI (NCI-H522 lung): > 100 µM | TGI (OVCAR-3 ovarian): > 100 µM | TGI (CAKI-1 renal): > 100 µM | TGI (SN12C renal): > 100 µM | TGI (IGROV1 ovarian): > 100 µM | TGI (ACHN renal): > 100 µM | TGI (NCI-H23 lung): > 100 µM
